Measurements published in paper PMC7617869, “Molecular glues that inhibit deubiquitylase activity and inflammatory signaling” (Nature Structural & Molecular Biology, 2025).
“And” between values parts separate entries of the source, which are not always exact repeats. Equal entries are not always repeated.

Key:
[1] = test system: IFN-stimulated response elements (ISRE) in THP-1 cells; test: THP-1 ISRE luciferase reporter, IFNα2 stimulation; format: cell-based, human
Description: (§1) THP-1 in vitro experiments
(§2) THP-1-DualTM cells (InvivoGen), derived from a human monocytic cell line, isolated from a patient with acute monocytic leukaemia, were cultured as per manufacturer’s guidance. Cells were seeded at 1x10^6 cells/mL in RPMI1640 media containing 10% fetal bovine serum (FBS), 1% penicillin-streptomycin (PS) (Gibco Laboratories) with DMSO (0.1%) (control) or in media containing JMS-175- […]
(§3) ng/mL) (Merck Life Science), ODN 2216 (1 µM) (Miltenyi Biotec), or Poly:IC (1 µg/mL) (InvivoGen).
(§4) Tofacitinib (Cambridge Biosciences) at 0.4 µM was used for comparison against a known JAK inhibitor.
(§5) Cells were centrifuged at 300 g for 5 minutes. Supernatant was removed and subjected to simultaneous study of the NF -κB pathway, by monitoring the activity of secreted alkaline phosphatase reporter (SEAP), and the IRF pathway, by assessing the activity o f a secreted Lucia luciferase using QUANTI - Blue ™ Solution and QUANTI -Luc™ 4 Lucia/Gaussia (InvivoGen), respectively, as per manufacturer’s instructions. Pelleted cells were used for FACS analysis using IFNα/β R1 APC-conjugated antibody or isotype control (Biotechne, FAB245A and IC002A), or unstained staining procedure with and without Zombie GreenTM (Biolegend). Samples were analysed using CytoFlex LX (Beckman) (50,000 live cells per condition). Median fluorescence intensity for APC channel gated on single cell live cells was analysed and compared as a percentage to control (no stimulation condition). […]

[2] = test system: IFNAR1 surface levels in THP-1 cells; test: THP-1 IFNAR1 surface levels (FACS); format: cell-based, human
Description: as §1, §2, §3, §4, §5

THP-1 cells = test: THP-1 live cell percentage; format: cell-based; conditions: male, human, 16 h, 0.4 µM
Description: as §1, §2, §3, §4, §5

[3] = test system: ISRE in THP-1 cells (TLR9 agonist ODN 2216); test: THP-1 ISRE luciferase reporter, ODN 2216 stimulation; format: cell-based, human; conditions: ODN 2216 1 µM, 0.4 μM, 16 h
Description: as §1, §2, §3, §4, §5

[4] = test system: ISRE in THP-1 cells (TLR3 agonist polyI:C); test: THP-1 ISRE luciferase reporter, polyI:C stimulation; format: cell-based, human; conditions: polyI:C 1 µg/mL, 0.4 μM, 16 h
Description: as §1, §2, §3, §4, §5

[5] = test system: NF-κB pathway in THP-1 cells; test: THP-1 NF-κB pathway SEAP reporter, lipopolysaccharide stimulation; format: cell-based, human; conditions: LPS + compound, three replicates
Description: as §1, §2, §3, §4, §5

In the case of `C[C@@H]1CCN(C(=O)CC#N)C[C@@H]1N(C)c1ncnc2[nH]ccc12` [tofacitinib, reference compound], the “ISRE luciferase reporter signal (Fig. 5a)” value ([1]; IFN + compound, replicate values) is reported as 1776.67 and 1732 and 1959.33 and 2178.33, the ISRE relative expression ([1]; hIFNα2 25 ng/ml, 0.4 μM, 16 h) is reported as “potent effect” and the “IFNAR1 surface levels (Fig. 5h)” value ([2]; IFN + compound, No IFN = 100) is reported as 59.2689 and 88.3889 and 79.9066. For the same molecule, the IFNAR1 surface levels ([2]; THP-1, hIFNα2 25 ng/ml, 0.4 μM, 16 h) was “no significant reduction”, the “percentage of live cells” value (THP-1 cells) was 98.18% and the “ISRE luciferase signal in THP-1 supernatant” value (from here on “ISRE luciferase signal”) [3] was “not reduced”. The “ISRE luciferase signal” value ([3]; listed as Tofacitinib) was 198.333 and 276 and 283.333, the “ISRE luciferase signal” value [4] was “not reduced” and the “ISRE luciferase signal” value ([4]; listed as Tofacitinib) was 199.667 and 316.333 and 317.333. For the same molecule, the “NF-κB SEAP reporter signal” value [5] was 1.232 and 1.181 and 1.209.
